Measured values from patent US7022343B2, “Controlled release of anti-arrhythmic agents” (Genzyme Corporation, priority 2000, dated 2006).
Counter-ions that a name gives are not always drawn.

Key:
[1] = Amiodarone concentration in dog right atrium under FOCALSEAL-S hydrogels (Example 9); type: in vivo; conditions: right atrial appendage, right ventricle, left atrial appendage, left atrial free wall, distal lung
[2] = FOCALSEAL-L; FIG. 2A / FIG. 2B
[3] = Tissue analysis of drug content under FOCALSEAL-S gels on porcine heart; type: in vivo; conditions: lung tissue adjacent to gel-treated sites; pig, seven days

CCCCc1oc2ccccc2c1C(=O)c1cc(I)c(OCCN(CC)CC)c(I)c1 [amiodarone, Amiodarone hydrochloride]
other tissue harvested showing a detectable level of amiodarone [1]: None | change in pH and modulus as concentration is increased [2]: decrease in pH and modulus | concentration at 7 days [3]: ≤ 17000 ng/g
